Here are results for five compounds from patent US20030138864A1, “Method for identifying an enzyme to design anti-cancer compounds” (priority 2001, published 2003).

Structures can show the parent of a compound that is named as a salt. Where two headings read alike, the source gives them in different places.

Data set [1] can be described thus: Growth inhibition (cytotoxicity, WST-1) of granulocyte progenitors expanded ex vivo (CFU-GM). The data set is classed as cell-based, human. To be noted: human, drug exposure time; for IC50 at 24 h: then cultured for 6 days without drugs. The method, then: (§1) The activation of the compounds is mediated by microsomal dipeptidase. The inhibitory activities of the compounds is determined against growth of the cells expressing a low level of microsomal dipeptidase, those expressing a high level of microsomal dipeptidase, and granulocyte progenitors that are expanded ex vivo. The human colon cancer cell line, HCT116 (American Type Culture Collection No. CCL-247), and granulocyte progenitors are used as the cells expressing only a low level of microsomal dipeptidase. A stable transfectant, HCT116/S5, into which the human microsomal dipeptidase cDNA (herafter called MDP) connected to the CMV promoter was transfected, is used as the cells expressing a high level of microsomal dipeptidase. The dipeptidase cDNA (Satoh et al. Biotechnol. Prog. 10 (2), 134-140 (1994)) and other references) and the cloning procedures as mentioned are known in the art. HCT116, HCT116/S5, and granulocyte porogenitors are cultured in the absence and presence of the drugs. […] The IC50 values are determined and compared among HCT116, HCT116/S5, and granulocyte porogenitors. Although time duration of the exposure of the cells to the drugs varies depending on the cells and drugs, it can be 24 hr, 96 or 168 hr.
(§2) CD34-positive mononuclear cells derived from the human umbilical cord blood and bone marrow (Veritas Co, Tokyo, Japan, Catalog No.CB009F, ABM019F) were cultured on a confluent monolayer of MS5 (Itoh, K., et al. Reproducible establishment of hematopoietic supportive stromal cells from murine bone marrow. Exp. Hematol. 17, 145-153 (1989)). Mouse stromal cell lines in alpha MEM medium (Life Technologies, Gaithersburg, USA, Catalog No.12571-0063) supplemented with 10% (v/v) horse serum (HS) (Stem Cell Technologies, Vancouver, Canada, Catalog No. 06750), 10% (v/v) fetal bovine serum (FBS) (Stem Cell Technologies, Vancouver, Canada, Catalog No.06450), 50 ng/ml Flt3 ligand (PeproTec EC., London, UK., Catalog No. 300-19), 100 ng/ml SCF (PeproTech EC, London, UK., Catalog No. 300-07), and 50 ng/ml TPO (PeproTech EC, London, England, Catalog No. 300-18) at 37° C. under 5% CO2 in humidified air. Floating hematopoietic cells were collected and stained by monoclonal antibodies against PerCP-anti-CD34 (BD pharMingen, San Diego, USA, Catalog No.340430), PE-anti-CD13 (BD pharMingen, San Diego, USA, Catalog No. 30525X) and FlTC-anti-15(BD pharMingen, SanDiego, USA, Catalog No. PM30525X). Five microlitter of each antibody was added to a […] of cell suspension and incubated at 4° C. for 25 min. After washing with PBS containing 10% (v/v) FCS, the expression of CD antigens were detected by using FACSCalibur (Becton Dickinson, Franklin Lakes, N.J., USA) according to the FACSCalibur Traing mannual (FACStation ver1.1. Becton Dickinson, Franklin Lakes, N.J., USA.). […]
Background: Formazan colour is commonly taken as a measure of viable cells.

Data set [2] deals with HCT116/S5: HCT116 transfected with the human microsomal dipeptidase cDNA. Put plainly: Growth inhibition (cytotoxicity, WST-8) of HCT116/S5 cells expressing a high level of microsomal dipeptidase. It is filed as cell-based. The following applies: for Growth inhibition compared among HCT116, HCT116/S5 and granulocyte progenitor cells: HCT116/S5 (high microsomal dipeptidase) versus HCT116 and granulocyte progenitor cells (very little activity); for IC50: drug exposure time, read-out: Cytotoxicity (IC50 in nM) HCT116/S5. How it is done:
as §1
Transfection of the DNA was carried out by using TransIT-LT2 (PanVera, Madison, USA, Calatog No. MIR2320) according to the manufacturer's instruction. The resulting transfectants were cultivated in MaCoy5A medium (Sigma, St Louis, USA, Catalog No. M8403) supplemented with 10% (v/v) fetal bovine serum and 1 mg/ml of geneticin disulfate (Wako, Osaka, Japan, Catalog No. 535-24624). The cells that grew in the presence of 1 mg/ml G418 were collected and cultivated in MaCoy5A medium.
(§3) By using 96-multi well plates, approximately 2×10^3 cells per well of the HCT116 bearing pRC/CMV and HCT116S5 carrying pRC/CMV-MDP were cultured in 200 μl of McCoy5A medium supplemented with 10% FBS in the presence or absence of the indicated concentrations of the drugs at 37° C. under 5% CO2 in humidified air. The cells were exposed to drugs for 24 hr (taxol, camptothecins and their prodrugs) or 96 hr (DMDC and its compounds). When the drug exposure time to the cells was 24 hr, culture medium containing drugs were removed, and the cells were washed and suspended in the fresh medium without drugs and further cultured at 37° C. under 5% CO2 in humidified air for the indicated days. Then, 10 μl of WST-8 (Cell Counting Kit-8, Wako, Osaka, Japan, Catalog No.343-07623) were added to the cultures, and the cells were further incubated at 37° C. for 1 or 2 hr. Cell growth inhibition was calculated as IC50 values according to optical densities at 450 nm and at 655 nm. To examine the effects of drugs on granulocyte progenitors, the granulocyte progenitors, which were expanded on a monolayer of MS-5 for 7 days, were collected and washed with RPMI1640 medium. Approximately 5000 cells were suspended in 200 μl of RPMI medium supplemented with 10% FBS and 50 ng/ml of G-CSF in the presence or absence of drugs and cultured in the presence of drugs for 24 hr (taxol, camptothecins and their prodrugs) or 7 days (DMDC and its prodrug) at 37° C. under 5% CO2 in humidified air. When the exposure time of drugs to the cells was 24 hr, the drugs were removed at 24 hr after addition of drugs by washing the cells with the above medium, and the cells were further cultured for 6 days in the same medium without drugs. Therafter, 20 μl of WST-1 (Roche Diagnostics, Mannheim, Germany, Catalog No. 1644807) were added to the cultures, and the cells were further incubated at 37° C. for 6 hr. Cell growth inhibition was calculated as IC50 values according to optical densities at 450 nm and at 655 nm.

In data set [3] the test system is HCT116: human colon cancer cell line. Kind of data set: Growth inhibition (cytotoxicity, WST-8) of HCT116 cells expressing only a low level of microsomal dipeptidase. It is filed as cell-based. To be noted: drug exposure time, read-out: Cytotoxicity (IC50 in nM) HCT116. How it is done: The activation of the compounds is mediated by microsomal dipeptidase. The inhibitory activities of the compounds is determined against growth of the cells expressing a low level of microsomal dipeptidase, those expressing a high level of microsomal dipeptidase, and granulocyte progenitors that are expanded ex vivo. […] A stable transfectant, HCT116/S5, into which the human microsomal dipeptidase cDNA (herafter called MDP) connected to the CMV promoter was transfected, is used as the cells expressing a high level of microsomal dipeptidase. […] HCT116, HCT116/S5, and granulocyte porogenitors are cultured in the absence and presence of the drugs. […] The IC50 values are determined and compared among HCT116, HCT116/S5, and granulocyte porogenitors.
Transfection of the DNA was carried out by using TransIT-LT2 (PanVera, Madison, USA, Calatog No. MIR2320) according to the manufacturer's instruction. […] The cells that grew in the presence of 1 mg/ml G418 were collected and cultivated in MaCoy5A medium.
as §3, with “Then, 10 μl of WST-8 (Cell Counting Kit-8, Wako, Osaka, Japan, Catalog No.343-07623) were added to the cultures, and the cells were further incubated at 37° C. for 1 or 2 hr. Cell growth inhibition was calculated as IC50 values according to optical densities at 450 nm and at 655 nm.” left out, “drugs.” for “drugs. Therafter, 20 μl of WST-1 (Roche Diagnostics, Mannheim, Germany, Catalog No. 1644807) were added to the cultures, and the cells were further incubated at 37° C. for 6 hr. Cell growth inhibition was calculated as IC50 values according to optical densities at 450 nm and at 655 nm.”

Data set [4] concerns CFU-GM: human bematopoietic progenitor cells. Kind of data set: Growth inhibition (cytotoxicity, WST-1) of granulocyte progenitors expanded ex vivo (CFU-GM). The following applies: drug exposure time; 24 hr, then cultured for 6 days without drugs; read-out: Cytotoxicity (IC50 in nM) CFU-GM. It is filed as cell-based. The method, then: as §1, §2
The mark [5] stands for this setting: Homo sapiens, HCT-116, 24 hr, then drug removed and cells cultured further.
The mark [6] stands for this setting: 24 hr, then drug removed and cells cultured further.

Consider `CC(=O)O[C@H]1C(=O)[C@@]2(C)[C@H]([C@H](OC(=O)c3ccccc3)[C@]3(O)C[C@H](OC(=O)[C@H](O)[C@@H](NC(=O)c4ccccc4)c4ccccc4)C(C)=C1C3(C)C)[C@]1(OC(C)=O)CO[C@@H]1C[C@@H]2O` (relative stereo) [Paclitaxel, [2aR-[2aα,4β,4aβ,6β,9α(αR*,βS*),11α,12α,12aα,12bα]]-β-(benzoylamino)-α-hydroxybenzenepropanoic acid 6,12b-bis(acetyloxy)-12-(benzoyloxy)-2a,3,4,4a,5,6,9,10,11,12,12a,12b-dodecahydro-4,11-dihydroxy-4a,8,13,13-tetramethyl-5-oxo-7,11-methano-1H-cyclodeca[3,4]benz[1,2-b]oxet-9-yl ester, reference compound], for which the IC50 at 24 h in data set [1] amounted to 16 nM. Further, in data set [2], the “Growth inhibition compared among HCT116, HCT116/S5 and granulocyte progenitor cells” value (“Growth inhibition compared among HCT116” below) is reported as “not significantly different”. In data set [3] (setting [5]), the IC50 came to 2.5 nM.
In data set [1], `CC[C@@]1(O)C(=O)OCc2c1cc1n(c2=O)Cc2cc3ccccc3nc2-1` [Camptothecin, 4(S)-ethyl-4-hydroxy-1H-pyrano[3′,4′:6,7]indolizino[1,2-b]quinoline-3,14(4H,12H)-dione, reference compound] showed an IC50 at 24 h of 6.1 nM. Moreover, the “Growth inhibition compared among HCT116” value in data set [2] was “not significantly different”. Moreover, the IC50 in data set [2] (setting [5]) was 5.6 nM; in data set [3] (setting [5]), 19 nM.
Consider `C=C1[C@H](n2ccc(N)nc2=O)O[C@H](CO)[C@H]1O` [DMDC, 2′-deoxy-2′-methylidenecytidine, reference compound], for which, in data set [1] (168 hr (7 days)), the IC50 at 168 h amounted to 0.07 nM. The “Growth inhibition compared among HCT116” value in data set [2] is reported as “not significantly different”. Also, the IC50 in data set [2] (Homo sapiens, HCT-116, 96 hr) amounted to 0.3 nM; in data set [3] (Homo sapiens, HCT-116, 96 hr), 0.2 nM.
As to `CCCCCN1C=Nc2c3c(nc4cccc1c24)-c1cc2c(c(=O)n1C3)COC(=O)[C@@]2(CC)OC(=O)C[C@@H](NC(=O)[C@@H](N)CC1CCCCC1)C(=O)O` [Example 49-11, (9S)-9-ethyl-9-[(L)-cyclohexylalanyl-(D)-β-aspartyloxy]-1-pentyl-1H,12H-pyrano[3″,4″:6′,7′]indolizino[1′,2′:6,5]pyrido[4,3,2-de]quinazoline-10,13(9H,15H)-dione hydrochloride], the results for the IC50 in data set [4], in data set [2] (setting [6]) and in data set [3] (setting [6]) were 120 nM, 13 nM and above 50 nM, respectively.
The like results for `CCc1c2c(nc3ccc(O)cc13)-c1cc3c(c(=O)n1C2)COC(=O)[C@]3(O)CC` [SN 38, reference compound] were, in that order, 1.8 nM, 2.2 nM and 3.7 nM.
